# Results reported in patent US12528812B2 (Genentech, Inc., priority 2020, dated 2026).
# Like-named read-outs stand apart in the source and are kept apart here.
# Key:
# [1] = biological target: Recombinant human JAK2 kinase domain protein (Residues 812-1132) (Homo sapiens, UniProt O60674); assay: JAK2 biochemical assay (LabChip mobility shift, Ki); conditions: Biochem JAK2 Ki
# [2] = biological target: T1, recombinant human JAK1 kinase domain protein (Residues 854-1154) (Homo sapiens, UniProt P23458); assay: JAK1 biochemical assay (LabChip mobility shift, Ki); conditions: read-out: Biochem JAK1 Ki
# T1 construct: human JAK1 kinase domain protein (Residues 854-1154); purchased Proteros Biostructures GmbH (Martinsried, Germany); host or cells: insect cells
# T1 sequence (P23458 854-1154): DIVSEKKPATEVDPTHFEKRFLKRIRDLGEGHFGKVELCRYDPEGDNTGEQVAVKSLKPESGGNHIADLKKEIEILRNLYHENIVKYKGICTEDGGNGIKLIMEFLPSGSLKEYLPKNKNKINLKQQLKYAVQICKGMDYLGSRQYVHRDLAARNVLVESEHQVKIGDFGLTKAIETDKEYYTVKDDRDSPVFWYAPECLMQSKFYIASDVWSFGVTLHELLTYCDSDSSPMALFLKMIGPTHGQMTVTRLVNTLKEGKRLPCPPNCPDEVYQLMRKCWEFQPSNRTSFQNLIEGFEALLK
# [3] = test system: IL-13-stimulated STAT6 phosphorylation in human lung bronchial epithelial BEAS-2B cell line; assay: P-STAT6 BEAS-2B + IL-13 cell assay; type: cell-based; conditions: BEAS2B cells, IL13 stimulation, read-out: Cellular JAK1 PSTAT6 BEAS2B + IL13
# In short: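 BEAS-2B cells grown 48 h at 37 °C, pre-treated 1 h with compound (10-point 1:2 dilution curve), then stimulated 15 min with human recombinant IL-13 (250 ng/mL stock). Lysate P-STAT6 (Tyr641) read by MSD sandwich ELISA with total-STAT6 capture; IC50 from four-parameter logistic fit of control-normalised data.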
# Sequence of Recombinant human JAK2 kinase domain protein (Residues 812-1132) (O60674 812-1132): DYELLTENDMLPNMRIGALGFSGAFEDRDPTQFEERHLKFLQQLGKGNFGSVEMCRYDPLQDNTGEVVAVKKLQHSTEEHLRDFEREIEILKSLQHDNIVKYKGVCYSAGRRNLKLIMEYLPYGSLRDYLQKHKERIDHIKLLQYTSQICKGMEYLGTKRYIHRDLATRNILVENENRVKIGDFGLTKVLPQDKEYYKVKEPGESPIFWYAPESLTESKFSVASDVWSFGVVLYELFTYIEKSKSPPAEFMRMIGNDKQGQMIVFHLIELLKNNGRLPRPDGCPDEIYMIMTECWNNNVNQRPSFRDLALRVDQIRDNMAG
Ki [1] [nM],Ki [2] [nM],Structure (SMILES),"IC50 ([3]; Homo sapiens, BEAS-2B) [nM]",IC50 [3] [nM]
0.39,0.57,"CN1CC(O)(c2cncc(Oc3ccc(OC(F)F)c(-c4nn(C)cc4NC(=O)c4cnn5cccnc45)c3)c2)C1 [Example 189, N-[3-[2-(difluoromethoxy)-5-[[5-(3-hydroxy-l-methyl-azetidin-3-yl)-3-pyridyl]oxy]phenyl]-1-methyl-pyrazol-4-yl]pyrazolo[1,5-a]pyrimidine-3-carboxamide]",78,
0.19,0.54,"CN1CCC(O)(Cn2cc(Oc3ccc(OC(F)F)c(-c4nn(C)cc4NC(=O)c4cnn5cccnc45)c3)cn2)CC1 [Example 191, N-[3-[2-(difluoromethoxy)-5-[1-[(4-hydroxy-1-methyl-4-piperidyl)methyl]pyrazol-4-yl]oxy-phenyl]-1-methyl-pyrazol-4-yl]pyrazolo[1,5-a]pyrimidine-3-carboxamide]",110,
2.3,1.6,"CN1CCCC(O)(Cn2cc(Oc3ccc(OC(F)F)c(-c4nn(C)cc4NC(=O)c4cnn5cccnc45)c3)cn2)C1 (stereo not drawn) [Example 193, N-[3-[2-(difluoromethoxy)-5-[1-[(3-hydroxy-l-methyl-3-piperidyl)methyl]pyrazol-4-yl]oxy-phenyl]-1-methyl-pyrazol-4-yl]pyrazolo[1,5-a]pyrimidine-3-carboxamide]",58,
1.4,2.1,"CN1CCCC(O)(Cn2cc(Oc3ccc(OC(F)F)c(-c4nn(C)cc4NC(=O)c4cnn5cccnc45)c3)cn2)C1 (stereo not drawn) [Example 194, N-[3-[2-(difluoromethoxy)-5-[1-[(3-hydroxy-l-methyl-3-piperidyl)methyl]pyrazol-4-yl]oxy-phenyl]-1-methyl-pyrazol-4-yl]pyrazolo[1,5-a]pyrimidine-3-carboxamide]",,64
0.52,0.8,"CN1CCCC(O)(Cn2cc(Oc3ccc(OC(F)F)c(-c4nn(C)cc4NC(=O)c4cnn5cccnc45)c3)cn2)CC1 (stereo not drawn) [Example 196, N-[3-[2-(difluoromethoxy)-5-[1-[(4-hydroxy-1-methyl-azepan-4-yl)methyl]pyrazol-4-yl]oxy-phenyl]-1-methyl-pyrazol-4-yl]pyrazolo[1,5-a]pyrimidine-3-carboxamide]",120,
0.51,0.81,"CN1CCCC(O)(Cn2cc(Oc3ccc(OC(F)F)c(-c4nn(C)cc4NC(=O)c4cnn5cccnc45)c3)cn2)CC1 (stereo not drawn) [Example 197, N-[3-[2-(difluoromethoxy)-5-[1-[(4-hydroxy-l-methyl-azepan-4-yl)methyl]pyrazol-4-yl]oxy-phenyl]-1-methyl-pyrazol-4-yl]pyrazolo[1,5-a]pyrimidine-3-carboxamide]",,130
0.83,1.5,"CN(C)CCN1CC(O)(Cn2cc(Oc3ccc(OC(F)F)c(-c4nn(C)cc4NC(=O)c4cnn5cccnc45)c3)cn2)C1 [Example 198, N-[3-[2-(difluoromethoxy)-5-[1-[[1-[2-(dimethylamino)ethyl]-3-hydroxy-azetidin-3-yl]methyl]pyrazol-4-yl]oxy-phenyl]-1-methyl-pyrazol-4-yl]pyrazolo[1,5-a]pyrimidine-3-carboxamide]",1000,
0.38,0.68,"Cn1cc(NC(=O)c2cnn3cccnc23)c(-c2cc(Oc3ccnnc3)ccc2OC(F)F)n1 [Example 202, N-[3-[2-(difluoromethoxy)-5-pyridazin-4-yloxy-phenyl]-1-methyl-pyrazol-4-yl]pyrazolo[1,5-a]pyrimidine-3-carboxamide]",26,
2.3,2.5,"CN1CCC(n2cc(Oc3ccc(OC(F)F)c(-c4nn(C)cc4NC(=O)c4cnn5cccnc45)c3)cn2)CC1 [Example 203, N-[3-[2-(difluoromethoxy)-5-[1-(1-methyl-4-piperidyl)pyrazol-4-yl]oxy-phenyl]-1-methyl-pyrazol-4-yl]pyrazolo[1,5-a]pyrimidine-3-carboxamide]",75,
1.4,2.2,"Cn1cc(NC(=O)c2cnn3cccnc23)c(-c2cc(Oc3cccnn3)ccc2OC(F)F)n1 [Example 204, N-[3-[2-(difluoromethoxy)-5-pyridazin-3-yloxy-phenyl]-1-methyl-pyrazol-4-yl]pyrazolo[1,5-a]pyrimidine-3-carboxamide]",56,
0.79,0.74,"CN1CC(N(C)C(=O)c2cccc(Oc3ccc(OC(F)F)c(-c4nn(C)cc4NC(=O)c4cnn5cccnc45)c3)c2)C1 [Example 205, N-[3-[2-(difluoromethoxy)-5-[3-[methyl-(1-methylazetidin-3-yl)carbamoyl]phenoxy]phenyl]-1-methyl-pyrazol-4-yl]pyrazolo[1,5-a]pyrimidine-3-carboxamide]",40,
0.88,0.89,"CN(C)CCN(C)C(=O)c1cccc(Oc2ccc(OC(F)F)c(-c3nn(C)cc3NC(=O)c3cnn4cccnc34)c2)c1 [Example 206, N-[3-[2-(difluoromethoxy)-5-[3-[2-(dimethylamino)ethyl-methyl-carbamoyl]phenoxy]phenyl]-1-methyl-pyrazol-4-yl]pyrazolo[1,5-a]pyrimidine-3-carboxamide]",45,
0.53,0.73,"CCN1CC(O)(Cn2cc(Oc3ccc(OC(F)F)c(-c4nn(C)cc4NC(=O)c4cnn5cccnc45)c3)cn2)C1 [Example 207, N-[3-[2-(difluoromethoxy)-5-[1-[(1-ethyl-3-hydroxy-azetidin-3-yl)methyl]pyrazol-4-yl]oxy-phenyl]-1-methyl-pyrazol-4-yl]pyrazolo[1,5-a]pyrimidine-3-carboxamide]",33,
1.2,1.2,"CCn1cc(NC(=O)c2cnn3cccnc23)c(-c2cc(Oc3cnn(CC4(O)CN(C)C4)c3)ccc2OC(F)F)n1 [Example 208, N-[3-[2-(difluoromethoxy)-5-[1-[(3-hydroxy-1-methyl-azetidin-3-yl)methyl]pyrazol-4-yl]oxy-phenyl]-1-ethyl-pyrazol-4-yl]pyrazolo[1,5-a]pyrimidine-3-carboxamide]",72,
0.48,0.96,"CC(C)N1CCC(O)(Cn2cc(Oc3ccc(OC(F)F)c(-c4nn(C)cc4NC(=O)c4cnn5cccnc45)c3)cn2)CC1 [Example 209, N-[3-[2-(difluoromethoxy)-5-[1-[(4-hydroxy-1-isopropyl-4-piperidyl)methyl]pyrazol-4-yl]oxy-phenyl]-1-methyl-pyrazol-4-yl]pyrazolo[1,5-a]pyrimidine-3-carboxamide]",190,

Structure (SMILES),Ki [1] [nM],Ki [2] [nM],"IC50 ([3]; Homo sapiens, BEAS-2B) [nM]",IC50 [3] [nM]
"Cn1cc(NC(=O)c2cnn3cccnc23)c(-c2cc(Oc3cnn(CC4(O)CN5CCC4CC5)c3)ccc2OC(F)F)n1 (stereo not drawn) [Example 199, N-[3-[2-(difluoromethoxy)-5-[1-[(3-hydroxyquinuclidin-3-yl)methyl]pyrazol-4-yl]oxy-phenyl]-1-methyl-pyrazol-4-yl]pyrazolo[1,5-a]pyrimidine-3-carboxamide]",0.43,0.88,,130
"Cn1cc(NC(=O)c2cnn3cccnc23)c(-c2cc(Oc3cnn(CC4(O)CN5CCC4CC5)c3)ccc2OC(F)F)n1 (stereo not drawn) [Example 200, N-[3-[2-(difluoromethoxy)-5-[1-[(3-hydroxyquinuclidin-3-yl)methyl]pyrazol-4-yl]oxy-phenyl]-1-methyl-pyrazol-4-yl]pyrazolo[1,5-a]pyrimidine-3-carboxamide]",1.6,3.6,,780
